{
  "source": "patent US12222310B2",
  "about": "“Magnesium ion selective membranes” (Siemens Healthcare Diagnostics Inc., priority 2015, dated 2025)",
  "assay": "plasticizer lost from sensor membrane over use life, remaining plasticizer determined by UPLC",
  "type": "physicochemical",
  "details": "membranes in RAPIDPoint systems, at least 25 days, about 10 whole blood samples per business day",
  "protocol": "Membrane formulations were prepared by using NPOE or ETH 217 plasticizers with polyvinylchloride, magnesium ionophore and lipohilic ion exchange salt. The materials were dissolved in a suitable organic solvent at a solids ratio of 10%. The solutions were deposited on the sensor substrates and the solvent allowed to evaporate yielding the formed membranes. The formulations were optimized to yield membranes with the best obtainable magnesium selectivity over calcium and were generally at least greater than 1:1.\nSensors were incorporated into RAPIDPoint systems (available from Siemens Healthcare Diagnostics Inc.) and tested over at least 25 days. During this time, sensors were calibrated with magnesium containing reagents and exposed to whole blood samples at approximately 10 per business day. In addition, magnesium containing quality control solutions were also run across least 25 days at least once every day. After testing the membranes were removed from the sensor substrate and the amount of remaining plasticizer was determined by UPLC and so the amount of plasticizer lost over time was calculated.",
  "data": [
    {"smiles": "CCCCCCCCCCCCOc1ccccc1[N+](=O)[O-]", "note": "[ETH 217, 1-dodecyloxy-2-nitrobenzene]", "values": [
      {"measurement": "% by wt Plasticizer Lost", "result": 3.9, "unit": "%"}
    ]}
  ]
}
